{"source": "the OPERA property sets (Mansouri et al. 2018)", "data": [{"settings": "20 °C", "units": {"solubility": "µM"}, "values": [{"smiles": "Cc1ccco1", "solubility": 36500}, {"smiles": "CCCCOCCOCCOCCCC", "solubility": 13700}, {"smiles": "CCCCCCOCCO", "solubility": 67700}, {"smiles": "CCCCOCCOCCCC", "solubility": 11500}]}, {"settings": "25 °C", "units": {"solubility": "µM"}, "values": [{"smiles": "Clc1ccccc1-c1c(Cl)cccc1Cl", "solubility": 1.26}, {"smiles": "Clc1ccc(-c2ccc(Cl)c(Cl)c2Cl)c(Cl)c1", "solubility": 0.024}, {"smiles": "CCCCCC(C)O", "note": "(stereo not given)", "solubility": 28100}, {"smiles": "Clc1ccc(Cl)c(-c2ccccc2)c1Cl", "solubility": 0.323}, {"smiles": "Clc1ccc(-c2c(Cl)cccc2Cl)cc1", "solubility": 0.617}, {"smiles": "CC(=O)Nc1ccccc1[N+](=O)[O-]", "solubility": 12300}, {"smiles": "Clc1ccccc1-c1ccc(Cl)c(Cl)c1Cl", "solubility": 0.148}, {"smiles": "CCCC[N+](=O)[O-]", "solubility": 44600}, {"smiles": "CCc1ccc(C)cc1", "solubility": 790}, {"smiles": "CCCCCCCOC(=O)c1ccc(N)cc1", "solubility": 25.1}, {"smiles": "CCOCCOCC", "solubility": 708000}, {"smiles": "Clc1cc(Cl)c(-c2c(Cl)ccc(Cl)c2Cl)cc1Cl", "solubility": 0.0117}, {"smiles": "Clc1cc(Cl)c(Cl)c(-c2c(Cl)ccc(Cl)c2Cl)c1", "solubility": 0.0151}, {"smiles": "O=Cc1ccc([N+](=O)[O-])cc1", "solubility": 15500}, {"smiles": "CCCOC(N)=O", "solubility": 741000}, {"smiles": "Clc1cccc(-c2c(Cl)ccc(Cl)c2Cl)c1Cl", "solubility": 0.166}, {"smiles": "CCCCCCN", "solubility": 119000}, {"smiles": "CCCCCCCCOC(=O)c1ccc(N)cc1", "solubility": 3.98}, {"smiles": "Fc1cccc(F)c1", "solubility": 9990}, {"smiles": "Clc1cccc(-c2ccccc2)c1Cl", "solubility": 4.47}, {"smiles": "Clc1ccc(-c2c(Cl)ccc(Cl)c2Cl)cc1Cl", "solubility": 0.0224}]}]}
